Data published in ChEMBL document CHEMBL1157396, “Dihydroagarofuranoid sesquiterpenes, a lignan derivative, a benzenoid, and antitubercular constituents from the stem of Microtropis japonica” (2008).
In brackets after ≈: the same amount, converted by molar mass.

System: Mycobacterium tuberculosis
Assay: Antitubercular activity against Mycobacterium tuberculosis H37Rv after 2 weeks by agar dilution method
Format: functional
Details: 336 h

## CC[C@H](CC[C@@H](C)[C@H]1CC[C@H]2[C@@H]3C(=O)C=C4C[C@@H](O)CC[C@]4(C)[C@H]3CC[C@]12C)C(C)C
  MIC: 128 µM (≈ 54.9 µg/mL)

## COc1cc(/C=C/C(=O)OC[C@H](Cc2ccc(O)c(OC)c2)[C@H](COC(=O)/C=C/c2ccc(O)c(OC)c2)Cc2ccc(O)c(OC)c2)ccc1O
  MIC: 126 µM (≈ 90.1 µg/mL)

## CC(=O)O[C@H]1C[C@@H](COC(=O)c2ccccc2)[C@]23OC(C)(C)[C@H](C[C@H](OC(=O)c4ccccc4)[C@]2(C)[C@H]1OC(C)=O)[C@H]3OC(=O)c1ccccc1
  MIC: 95 µM (≈ 66.4 µg/mL)

## CC(=O)OC[C@]12[C@@H](OC(=O)c3ccccc3)C[C@@H]3[C@@H](OC(=O)c4ccccc4)[C@]1(OC3(C)C)[C@H](C)C[C@H](OC(=O)c1ccccc1)[C@@H]2OC(C)=O
  MIC: 39.6 µM (≈ 27.7 µg/mL)

## COc1cc(/C=C\C(=O)OC[C@H](Cc2ccc(O)c(OC)c2)[C@H](COC(=O)/C=C\c2ccc(O)c(OC)c2)Cc2ccc(O)c(OC)c2)ccc1O
  MIC: 122 µM (≈ 87.2 µg/mL)

## COc1cc(C(=O)CCO)ccc1O
  MIC: 153 µM (≈ 30 µg/mL)

## CC(=O)O[C@H]1C[C@@H](C)[C@]23OC(C)(C)[C@H]([C@H](OC(=O)c4ccccc4)[C@H](OC(=O)c4ccccc4)[C@]2(COC(=O)c2ccccc2)[C@H]1OC(C)=O)[C@H]3OC(C)=O
  MIC: 79.3 µM (≈ 60 µg/mL)

## COc1cc(C(=O)C(CO)c2cc(OC)c(O)c(OC)c2)ccc1O (stereo not drawn) [5-METHOXYEVOFOLIN B]
  MIC: 215 µM (≈ 74.9 µg/mL)

## CC[C@H](CC[C@@H](C)[C@H]1CC[C@H]2[C@@H]3CC=C4C[C@@H](O)CC[C@]4(C)[C@H]3CC[C@]12C)C(C)C [BETA-SITOSTEROL]
  MIC: > 400 µM

## CC(=O)OC[C@]12[C@@H](OC(=O)c3ccccc3)C[C@@H]3[C@@H](OC(C)=O)[C@]1(OC3(C)C)[C@H](C)C[C@H](OC(C)=O)[C@@H]2O [CELAHIN C]
  MIC: 31.3 µM (≈ 16.7 µg/mL)

## COc1cc(/C=C/C=O)ccc1O [CONIFERYL ALDEHYDE]
  MIC: > 400 µM

## CC[C@@H](CO)NCCN[C@@H](CC)CO [ETHAMBUTOL]
  MIC: 30.6 µM (≈ 6.25 µg/mL)

## CCOc1cc(C=O)ccc1O [ETHYL VANILLIN]
  MIC: > 400 µM

## COc1cc(C(=O)C(CO)c2ccc(O)c(OC)c2)ccc1O (stereo not drawn) [EVOFOLIN B]
  MIC: 235 µM (≈ 74.8 µg/mL)

## CC(=O)O[C@@H]1[C@H]2C[C@H](OC(=O)c3ccccc3)[C@]3(COC(=O)c4ccccc4)[C@@H](OC(C)=O)[C@@H](OC(=O)c4ccccc4)C[C@@H](C)[C@@]13OC2(C)C [FOKIENAGAROFURAN A]
  MIC: 85.9 µM (≈ 60 µg/mL)

## CC(=O)O[C@H]1[C@@H](OC(=O)c2ccccc2)C[C@@H](C)[C@]23OC(C)(C)[C@H](C[C@H](OC(=O)c4ccccc4)[C@]12COC(=O)c1ccccc1)[C@H]3OC(=O)c1ccccc1 [FOKIENAGAROFURAN D]
  MIC: 105 µM (≈ 79.9 µg/mL)

## CN1CCCC1=O [METHYLPYRROLIDONE]
  MIC: > 400 µM

## COc1cc(O)c2c(c1)O[C@H](c1ccc(O)cc1)CC2=O [SAKURANETIN]
  MIC: 209 µM (≈ 59.8 µg/mL)

## CC(=O)OC[C@]12[C@@H](OC(=O)c3ccccc3)C[C@@H]3[C@@H](OC(C)=O)[C@]1(OC3(C)C)[C@H](C)C[C@H](O)[C@@H]2OC(C)=O [SALASOL A]
  MIC: 28.2 µM (≈ 15 µg/mL)

## COc1cc2ccc(=O)oc2cc1OC [SCOPARONE]
  MIC: 388 µM (≈ 80 µg/mL)

## COc1cc(C=O)cc(OC)c1O [SYRINGALDEHYDE]
  MIC: > 400 µM

## COc1cc(C(=O)O)ccc1O [VANILLIC ACID]
  MIC: 238 µM (≈ 40 µg/mL)

## COc1cc(C=O)ccc1O [VANILLIN]
  MIC: > 400 µM
